In patent US9073858B2, “Methods of targeted drug development” (priority 2010, dated 2015):

Legend:
[1] = tested on: caspase 3,7 activity in A431 cells; assay: cells
Source text: As described below, the capsase 3,7 assay uses the Promega Caspase-Glo 3/7 assay kit (cat no. G8092).
The Caspase-Glo® 3/7 Assay is a luminescent assay that measures caspase-3 and −7 activities in purified enzyme preparations or cultures of adherent or suspension cells. The assay provides a proluminescent caspase-3/7 substrate, which contains the tetrapeptide sequence, DEVD. This substrate is cleaved to release aminoluciferin, a substrate of luciferase used in the production of light. The Caspase-Glo® 3/7 Reagent has been optimized for caspase activity, luciferase activity and cell lysis. The addition of the single Caspase-Glo® 3/7 Reagent in an “add-mix-measure” format results in cell lysis, followed by caspase cleavage of the substrate and generation of a “glow-type” luminescent signal. The Caspase-Glo® 3/7 Assay is designed for use with multiwell plate formats, making it ideal for automated high-throughput screening of caspase activity or apoptosis.
Staurosporine was used as a positive control.
For the capsase 3,7 assay, cells were incubated for 5.5 hrs at 37° C., 5% CO2. The plate was removed from the incubator and equilibrated to room temperature. After 30 min, 25 μl Caspase 3/7 detection reagent (Promega Caspase-Glo 3/7 assay kit, cat no. G8092) was added to each well. The plate was covered with tin foil and shaken on a plate shaker at speed 4 for 3 min. The plate was then incubated for an additional 60 min at room temperature. Luminescence was detected using the PolarStar plate reader.
All statistical analyses were done using GraphPad Prism.
The assay was stopped after 6 hrs and the presence of caspase was measured using the Promega Caspase-Glo® 3/7 Assay.

EGFR = target: T1, EGFR (Homo sapiens, UniProt P00533); assay: EGFR in-cell Western (ICW) screening protocol; type: cell-based; parameters: unit not given here; details: initial screen
T1 construct: endogenous in cells; host or cells: A431 cells (ATCC CRL-1555)
Method in brief: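 Serum-starved cells treated with compound 4 h at 37 °C, then stimulated with EGF (20 or 0 ng/ml solution added) in its continued presence. In-cell Western on fixed cells: phospho-EGFR (800 channel) normalised to total EGFR (700 channel), % inhibition calculated against EGF-stimulated and unstimulated no-compound wells.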

[2] = Homo sapiens, A-431, read-out: Total Apoptosis (increase in caspase 3,7 activity as percentage of the maximal response)

T1 sequence (P00533 25-1210): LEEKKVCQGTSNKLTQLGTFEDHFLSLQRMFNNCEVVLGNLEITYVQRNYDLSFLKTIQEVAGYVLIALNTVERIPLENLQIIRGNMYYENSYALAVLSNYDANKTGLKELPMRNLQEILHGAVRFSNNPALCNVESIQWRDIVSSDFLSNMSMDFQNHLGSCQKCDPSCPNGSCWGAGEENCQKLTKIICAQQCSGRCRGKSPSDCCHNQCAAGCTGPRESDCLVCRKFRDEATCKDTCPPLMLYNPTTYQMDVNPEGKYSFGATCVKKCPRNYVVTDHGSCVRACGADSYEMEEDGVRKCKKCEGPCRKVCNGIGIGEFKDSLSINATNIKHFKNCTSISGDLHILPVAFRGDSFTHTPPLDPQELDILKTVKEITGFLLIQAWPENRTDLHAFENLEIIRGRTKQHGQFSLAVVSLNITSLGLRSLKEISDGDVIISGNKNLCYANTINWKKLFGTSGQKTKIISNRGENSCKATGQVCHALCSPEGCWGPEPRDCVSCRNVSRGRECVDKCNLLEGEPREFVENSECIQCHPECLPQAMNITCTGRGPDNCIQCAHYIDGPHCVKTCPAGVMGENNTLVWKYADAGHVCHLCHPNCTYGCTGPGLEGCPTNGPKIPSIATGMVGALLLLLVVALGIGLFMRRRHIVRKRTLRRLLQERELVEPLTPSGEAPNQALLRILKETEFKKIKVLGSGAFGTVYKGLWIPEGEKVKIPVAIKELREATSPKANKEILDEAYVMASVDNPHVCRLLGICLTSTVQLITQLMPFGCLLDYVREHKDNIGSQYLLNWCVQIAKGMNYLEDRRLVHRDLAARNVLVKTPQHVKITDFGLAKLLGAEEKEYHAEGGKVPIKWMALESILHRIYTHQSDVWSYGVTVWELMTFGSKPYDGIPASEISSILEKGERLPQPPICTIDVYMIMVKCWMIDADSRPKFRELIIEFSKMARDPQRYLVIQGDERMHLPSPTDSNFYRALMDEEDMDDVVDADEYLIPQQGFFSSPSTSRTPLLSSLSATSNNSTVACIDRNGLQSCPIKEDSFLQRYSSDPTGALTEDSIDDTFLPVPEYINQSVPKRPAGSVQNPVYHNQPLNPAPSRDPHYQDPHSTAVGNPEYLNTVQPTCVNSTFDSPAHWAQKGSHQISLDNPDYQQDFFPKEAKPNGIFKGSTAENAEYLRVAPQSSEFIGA

Row | Structure (SMILES) | Emax at 8 µM [1, 2] [%] | Emax at 16 µM [1, 2] [%] | effect on Tarceva to increase caspase 3,7 activity ([1]; Tarceva plus compound, A431 cells, 6 hrs) | Ability to Synergize with Tarceva ([1]; caspase 3,7 activity, A431 cells) | ICW Screen (EGFR)
1 | Cc1c(Cl)cnc(NC(c2cccc(Cl)c2Cl)c2ccc3cccnc3c2O)c1F (centres unmarked) [AD4-13192] | 29 | 32 | synergistic (greater-than-additive) effect | +++ (0.3-0.7 Synergism) | 
2 | Oc1c(C(Nc2ccccn2)c2ccc(C(F)(F)F)cc2)ccc2cccnc12 (centres unmarked) [compound 10460] |  |  |  |  | 23.17
